Reference: patent US8933039B2 (NPS Pharmaceuticals, Inc., priority 1995, dated 2015)
Non-standard residues stand in square brackets, D forms with d. Residues, ends and D or L forms follow the SMILES beside them. No end group written: not given here. Aib = CC(C)(N)C(=O)O

Columns and labels:
[1] = tested on: CD1 mice; assay: Intestinotrophic activity assessment: small bowel weight in mice; format: in vivo; conditions: for % Activity (small bowel inducing activity relative to native rat GLP-2(1-33) = 100%): mice, as Example 4; for % Increase in small bowel weight: CD1 mice, 2.5 μg peptide s.c. b.i.d. in PBS, sacrificed 10 or 14 days, relative to vehicle only
Description: Recipients were CD1 mice obtained from Charles River Laboratory (Ontario, Canada). The CD1 mice were aged-matched females at time of injection (n=3-4 per group), 6 weeks of age, unless otherwise specified. The animals were allowed a minimum of 24 hours to acclimatize to the laboratory facility before the initiation of each experiment. Animals were identified by ear punch. The mice were not restricted by diet or activity during the experiments. The light/dark cycle was 12 hours, between 6 pm to 6 am. Controls were age- and sex-matched (n=3-4) animals. Mice were injected subcutaneously, twice a day (b.i.d.), with 2.5 μg peptide in a total volume of 0.5 cc of PBS and were monitored daily in the laboratory facility. Animals were sacrificed 10 or 14 days after injection, and were fasted at least 20 hours before sacrifice.
The mice were anaesthetised with CO2 and exsanguinated by cardiac puncture. Blood was collected in 75 μl of TED (Trasysol; EDTA (5000 KIU/ml: 1.2 mg/ml; Diprotin-A), and the blood was centrifuged at 14 k×g for 5 minutes and the plasma was stored at −70 prior to analysis. The small bowel was removed from the peritoneal cavity, from pylorus to cecum, cleaned weighed and measured. For comparative purpose, sections from each animal were obtained from the identical anatomical position. Fragments each measuring 1.5-2.0 cm in length were obtained 8±2 cm, 18±2 cm, 32±2 cm from pylorus for histomorphometry representing proximal jejunum, distal jejunum and distal ileum. Each small bowel fragment was opened longitudinally on its antimesenteric border in a tissue block and then placed on 10% formalin (vol./vol.) overnight, then transferred to 70% […].
Percentage change in small bowel weight was calculated by dividing the mean change in bowel weight of analog treated mice, relative to mice treated with vehicle only, by the mean bowel weight of mice treated with vehicle only, and multiplying this figure by 100.
Experiments assessing the small bowel inducing activity of various analogs was repeated as described above for Example 4. In these experiments, the small bowel inducing activity of each analog in mice was calculated relative to that of native rat GLP-2(1-33) (expressed as 100% of activity). Resistance of analogs to DPP-IV cleavage was performed as described above in Example 3.

[2] = biological target: DPP-IV (Homo sapiens, UniProt P27487); assay: Assay for resistance to dipeptidyl peptidase IV (RP-HPLC of cleavage product); conditions: human, isolated human placental DPP-IV (dipeptidyl peptidase IV), pH 7.4, % Cleaved by DPP-IV, as Example 3: human placental DPP-IV, 37° C., PBS pH 7.4
DPP-IV, sequence (P27487 whole entry): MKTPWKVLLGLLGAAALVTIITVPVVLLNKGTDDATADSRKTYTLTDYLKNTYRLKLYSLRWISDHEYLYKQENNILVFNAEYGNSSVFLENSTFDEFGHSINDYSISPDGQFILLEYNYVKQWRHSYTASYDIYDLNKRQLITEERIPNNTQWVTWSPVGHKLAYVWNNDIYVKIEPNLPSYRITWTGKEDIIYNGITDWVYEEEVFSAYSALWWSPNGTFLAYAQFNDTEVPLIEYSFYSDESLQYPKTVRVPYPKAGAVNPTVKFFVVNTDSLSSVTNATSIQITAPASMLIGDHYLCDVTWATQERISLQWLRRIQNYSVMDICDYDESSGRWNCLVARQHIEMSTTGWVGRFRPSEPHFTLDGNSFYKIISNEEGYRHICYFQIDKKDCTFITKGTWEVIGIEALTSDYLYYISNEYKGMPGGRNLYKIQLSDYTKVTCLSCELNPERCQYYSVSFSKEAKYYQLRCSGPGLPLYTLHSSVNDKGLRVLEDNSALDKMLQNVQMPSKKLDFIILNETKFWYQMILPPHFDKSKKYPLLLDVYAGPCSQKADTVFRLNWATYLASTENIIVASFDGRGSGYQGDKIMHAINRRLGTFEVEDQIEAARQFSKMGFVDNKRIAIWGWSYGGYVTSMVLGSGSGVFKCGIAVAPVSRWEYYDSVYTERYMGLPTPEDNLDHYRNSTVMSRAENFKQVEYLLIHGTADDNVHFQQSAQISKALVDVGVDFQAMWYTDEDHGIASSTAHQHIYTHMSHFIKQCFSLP

Molecule | % Activity (small bowel inducing activity relative to native rat GLP-2(1-33) = 100%) [1] [%] | metabolised at 24 h, 0.19 mg/ml [2] [%] | % Increase in small bowel weight [1] [%]
CC[C@H](C)[C@H](NC(=O)[C@H](Cc1ccccc1)NC(=O)[C@H](CC(=O)O)NC(=O)[C@H](CCCNC(=N)N)NC(=O)[C@H](C)NC(=O)[C@H](C)NC(=O)[C@H](CC(C)C)NC(=O)[C@H](CC(N)=O)NC(=O)[C@H](CC(=O)O)NC(=O)[C@H](CC(C)C)NC(=O)[C@@H](NC(=O)[C@@H](NC(=O)[C@H](CC(N)=O)NC(=O)[C@H](CCSC)NC(=O)[C@H](CCC(=O)O)NC(=O)[C@H](CC(=O)O)NC(=O)[C@H](CO)NC(=O)[C@H](Cc1ccccc1)NC(=O)[C@H](CO)NC(=O)CNC(=O)[C@H](CC(=O)O)NC(=O)C(C)(C)NC(=O)[C@@H](N)Cc1c[nH]cn1)[C@@H](C)O)[C@@H](C)CC)C(=O)N[C@@H](CC(N)=O)C(=O)N[C@@H](Cc1c[nH]c2ccccc12)C(=O)N[C@@H](CC(C)C)C(=O)N[C@H](C(=O)N[C@@H](CCC(N)=O)C(=O)N[C@H](C(=O)N[C@@H](CCCCN)C(=O)N[C@H](C(=O)N[C@H](C(=O)N[C@@H](CC(=O)O)C(=O)O)[C@@H](C)O)[C@@H](C)CC)[C@@H](C)O)[C@@H](C)CC [[Aib2]hGLP-2(1-33)] (H-H[Aib]DGSFSDEMNTILDNLAARDFINWLIQTKITD-OH) | 202 | 0 | –
CC[C@H](C)[C@H](NC(=O)[C@H](Cc1ccccc1)NC(=O)[C@H](CC(=O)O)NC(=O)[C@H](CCCNC(=N)N)NC(=O)[C@H](C)NC(=O)[C@H](C)NC(=O)[C@H](CC(C)C)NC(=O)[C@H](CC(N)=O)NC(=O)[C@H](CC(=O)O)NC(=O)[C@H](CC(C)C)NC(=O)[C@@H](NC(=O)[C@@H](NC(=O)[C@H](CC(N)=O)NC(=O)[C@H](CCSC)NC(=O)[C@H](CCC(=O)O)NC(=O)[C@H](CC(=O)O)NC(=O)[C@H](CO)NC(=O)[C@H](Cc1ccccc1)NC(=O)[C@H](CO)NC(=O)CNC(=O)[C@H](CC(=O)O)NC(=O)[C@@H](C)NC(=O)[C@@H](N)Cc1c[nH]cn1)[C@@H](C)O)[C@@H](C)CC)C(=O)N[C@@H](CC(N)=O)C(=O)N[C@@H](Cc1c[nH]c2ccccc12)C(=O)N[C@@H](CC(C)C)C(=O)N[C@H](C(=O)N[C@@H](CCC(N)=O)C(=O)N[C@H](C(=O)N[C@@H](CCCCN)C(=O)N[C@H](C(=O)N[C@H](C(=O)N[C@@H](CC(=O)O)C(=O)O)[C@@H](C)O)[C@@H](C)CC)[C@@H](C)O)[C@@H](C)CC [[D-Ala2]hGLP-2(1-33)] | 130 | 0 | –
CC[C@H](C)[C@H](NC(=O)[C@H](Cc1ccccc1)NC(=O)[C@H](CC(=O)O)NC(=O)[C@H](CCCNC(=N)N)NC(=O)[C@H](C)NC(=O)[C@H](C)NC(=O)[C@H](CC(C)C)NC(=O)[C@H](CC(N)=O)NC(=O)[C@H](CC(=O)O)NC(=O)[C@H](CC(C)C)NC(=O)[C@@H](NC(=O)[C@@H](NC(=O)[C@H](CC(N)=O)NC(=O)[C@H](CCSC)NC(=O)[C@H](CCC(=O)O)NC(=O)[C@H](CC(=O)O)NC(=O)[C@H](CO)NC(=O)[C@H](Cc1ccccc1)NC(=O)[C@H](CO)NC(=O)CNC(=O)[C@H](CC(=O)O)NC(=O)CNC(=O)[C@@H](N)Cc1c[nH]cn1)[C@@H](C)O)[C@@H](C)CC)C(=O)N[C@@H](CC(N)=O)C(=O)N[C@@H](Cc1c[nH]c2ccccc12)C(=O)N[C@@H](CC(C)C)C(=O)N[C@H](C(=O)N[C@@H](CCC(N)=O)C(=O)N[C@H](C(=O)N[C@@H](CCCCN)C(=O)N[C@H](C(=O)N[C@H](C(=O)N[C@@H](CC(=O)O)C(=O)N[C@@H](CCCNC(=N)N)C(=O)O)[C@@H](C)O)[C@@H](C)CC)[C@@H](C)O)[C@@H](C)CC [[Gly2, Arg34]hGLP-2(1-34)] | ~250 | 0 | –
CC[C@H](C)[C@H](NC(=O)[C@H](Cc1ccccc1)NC(=O)[C@H](CC(=O)O)NC(=O)[C@H](CCCNC(=N)N)NC(=O)[C@H](C)NC(=O)[C@H](C)NC(=O)[C@H](CC(C)C)NC(=O)[C@H](CC(N)=O)NC(=O)[C@H](CC(=O)O)NC(=O)[C@H](CC(C)C)NC(=O)[C@@H](NC(=O)[C@@H](NC(=O)[C@H](CC(N)=O)NC(=O)[C@H](CCSC)NC(=O)[C@H](CCC(=O)O)NC(=O)[C@H](CC(=O)O)NC(=O)[C@H](CO)NC(=O)[C@H](Cc1ccccc1)NC(=O)[C@H](CO)NC(=O)CNC(=O)[C@H](CC(=O)O)NC(=O)CNC(=O)[C@@H](N)Cc1c[nH]cn1)[C@@H](C)O)[C@@H](C)CC)C(=O)N[C@@H](CC(N)=O)C(=O)N[C@@H](Cc1c[nH]c2ccccc12)C(=O)N[C@@H](CC(C)C)C(=O)N[C@H](C(=O)N[C@@H](CCC(N)=O)C(=O)N[C@H](C(=O)N[C@@H](CCCCN)C(=O)N[C@H](C(=O)N[C@H](C(=O)N[C@@H](CC(=O)O)C(=O)N[C@@H](Cc1ccc(O)cc1)C(=O)O)[C@@H](C)O)[C@@H](C)CC)[C@@H](C)O)[C@@H](C)CC [[Gly2, Tyr34]hGLP-2(1-34)] | 297 | 0 | –
H-HGDGSFSDAMNTILDNLAARDFINWLIQTKITD-OH [[Gly2,Ala9]hGLP-2(1-33)] | 112 | – | 31
H-HGDGSFSDEANTILDNLAARDFINWLIQTKITD-OH [[Gly2,Ala10]hGLP-2(1-33)] | 82 | – | 33
H-HGDGSFSDEMATILDNLAARDFINWLIQTKITD-OH [[Gly2,Ala11]hGLP-2(1-33)] | 150 | – | 42
H-HGDGSFSDEMNAILDNLAARDFINWLIQTKITD-OH [[Gly2,Ala12]hGLP-2(1-33)] | 67 | – | 18
H-HGDGSFSDEMNTALDNLAARDFINWLIQTKITD-OH [[Gly2,Ala13]hGLP-2(1-33)] | 67 | – | 18
H-HGDGSFSDEMNTIADNLAARDFINWLIQTKITD-OH [[Gly2,Ala14]hGLP-2(1-33)] | 30 | – | –
H-HGDGSFSDEMNTILDALAARDFINWLIQTKITD-OH [[Gly2,Ala16]hGLP-2(1-33)] | 130 | – | 36
H-HGDGSFSDEMNTILDNAAARDFINWLIQTKITD-OH [[Gly2,Ala17]hGLP-2(1-33)] | 130 | – | 36
H-HGDGSFSDEMNTILDNLAAADFINWLIQTKITD-OH [[Gly2,Ala20]hGLP-2(1-33)] | 105 | – | 46
H-HGDGSFSDEMNTILDNLAARAFINWLIQTKITD-OH [[Gly2,Ala21]hGLP-2(1-33)] | 125 | – | 35
H-HGDGSFSDEMNTILDNLAARDFANWLIQTKITD-OH [[Gly2,Ala23]hGLP-2(1-33)] | 24 | – | –
H-HGDGSFSDEMNTILDNLAARDFINALIQTKITD-OH [[Gly2,Ala25]hGLP-2(1-33)] | 18 | – | –
H-HGDGSFSDEMNTILDNLAARDFINWAIQTKITD-OH [[Gly2,Ala26]hGLP-2(1-33)] | 28 | – | –
H-HGDGSFSDEMNTILDNLAARDFINWLAQTKITD-OH [[Gly2,Ala27]hGLP-2(1-33)] | 82 | – | 22
H-HGDGSFSDEMNTILDNLAARDFINWLIATKITD-OH [[Gly2,Ala28]hGLP-2(1-33)] | 130 | – | 31
H-HGDGSFSDEMNTILDNLAARDFINWLIQTAITD-OH [[Gly2,Ala30]hGLP-2(1-33)] | 24 | – | –
H-HGDGSFSDEMNTILDNLAARDFINWLIQTKATD-OH [[Gly2,Ala31]hGLP-2(1-33)] | 100 | – | 28
HSQGSFSDEMNTILDNLAARDFINWLIQTKITD [[Ser2,Gln3]hGLP-2(1-33)] | – | 0 | –
RRADGSFSDEMNTILDNLATRDFINWLIQTKITD [[Arg-2,Arg-1]ratGLP-2(2-33)] | – | 0 | –
[Met SO2^10]rGLP-2 | – | – | 8
